Test results reported in publication PMC9516332 (Frontiers in Oncology, 2022).
Like-named read-outs stand apart in the source and are kept apart here.

How the values were obtained:
AP-1060 (ETV6-NTRK3) = test: Cell viability assay; details: read-out: IC50 in cell proliferation assay
134 cancer cell lines = test: Cell viability assay (ATPlite, 72 hours), IC50 on cancer cell line panel

COc1cc(N2CCC(N3CCN(C)CC3)CC2)ccc1Nc1ncc(Cl)c(Nc2ccccc2P(C)(C)=O)n1 [brigatinib]
IC50 (AP-1060 (ETV6-NTRK3)): 2400 nM | IC50 (134 cancer cell lines; HEC-6, read-out: IC50 in cell proliferation assay): 5210 nM | IC50 (134 cancer cell lines; Homo sapiens, 769-P, read-out: IC50 in cell proliferation assay): 1910 nM | IC50 (134 cancer cell lines; Homo sapiens, 786-0, read-out: IC50 in cell proliferation assay): 2070 nM | IC50 (134 cancer cell lines; Homo sapiens, A 172, read-out: IC50 in cell proliferation assay): 888 nM | IC50 (134 cancer cell lines; Homo sapiens, A204, read-out: IC50 in cell proliferation assay): 1270 nM | IC50 (134 cancer cell lines; Homo sapiens, A498, read-out: IC50 in cell proliferation assay): 1860 nM | IC50 (134 cancer cell lines; Homo sapiens, A549, read-out: IC50 in cell proliferation assay): 893 nM | IC50 (134 cancer cell lines; Homo sapiens, A704, read-out: IC50 in cell proliferation assay): 3590 nM | IC50 (134 cancer cell lines; Homo sapiens, A-375, read-out: IC50 in cell proliferation assay): 719 nM | IC50 (134 cancer cell lines; Homo sapiens, A-427, read-out: IC50 in cell proliferation assay): 448 nM | IC50 (134 cancer cell lines; Homo sapiens, ACHN, read-out: IC50 in cell proliferation assay): 894 nM | IC50 (134 cancer cell lines; Homo sapiens, AN3-CA, read-out: IC50 in cell proliferation assay): 1860 nM | IC50 (134 cancer cell lines; Homo sapiens, ASPC1, read-out: IC50 in cell proliferation assay): 809 nM | IC50 (134 cancer cell lines; Homo sapiens, AU565, read-out: IC50 in cell proliferation assay): 2580 nM | IC50 (134 cancer cell lines; Homo sapiens, BT-20, read-out: IC50 in cell proliferation assay): 4210 nM | IC50 (134 cancer cell lines; Homo sapiens, BT-474, read-out: IC50 in cell proliferation assay): 7880 nM | IC50 (134 cancer cell lines; Homo sapiens, BT-549, read-out: IC50 in cell proliferation assay): 3010 nM | IC50 (134 cancer cell lines; Homo sapiens, BXPC-3, read-out: IC50 in cell proliferation assay): 619 nM | IC50 (134 cancer cell lines; Homo sapiens, C-33-A, read-out: IC50 in cell proliferation assay): 527 nM | IC50 (134 cancer cell lines; Homo sapiens, CAL-27, read-out: IC50 in cell proliferation assay): 673 nM | IC50 (134 cancer cell lines; Homo sapiens, CCF-STTG1, read-out: IC50 in cell proliferation assay): 3440 nM | IC50 (134 cancer cell lines; Homo sapiens, CCRF-CEM, read-out: IC50 in cell proliferation assay): 3600 nM | IC50 (134 cancer cell lines; Homo sapiens, COLO 205, read-out: IC50 in cell proliferation assay): 998 nM | IC50 (134 cancer cell lines; Homo sapiens, COLO-829, read-out: IC50 in cell proliferation assay): 2560 nM | IC50 (134 cancer cell lines; Homo sapiens, DLD-1, read-out: IC50 in cell proliferation assay): 4720 nM | IC50 (134 cancer cell lines; Homo sapiens, DU-145, read-out: IC50 in cell proliferation assay): 667 nM | IC50 (134 cancer cell lines; Homo sapiens, DU-4475, read-out: IC50 in cell proliferation assay): 1790 nM | IC50 (134 cancer cell lines; Homo sapiens, Daoy, read-out: IC50 in cell proliferation assay): 3070 nM | IC50 (134 cancer cell lines; Homo sapiens, DoTc2-4510, read-out: IC50 in cell proliferation assay): 270 nM | IC50 (134 cancer cell lines; Homo sapiens, EOL1, read-out: IC50 in cell proliferation assay): 50 nM | IC50 (134 cancer cell lines; Homo sapiens, FaDu, read-out: IC50 in cell proliferation assay): 971 nM | IC50 (134 cancer cell lines; Homo sapiens, G-361, read-out: IC50 in cell proliferation assay): 9280 nM | IC50 (134 cancer cell lines; Homo sapiens, HCC827, read-out: IC50 in cell proliferation assay): 129 nM | IC50 (134 cancer cell lines; Homo sapiens, HCC4006, read-out: IC50 in cell proliferation assay): 152 nM | IC50 (134 cancer cell lines; Homo sapiens, HCT-15, read-out: IC50 in cell proliferation assay): 3770 nM | IC50 (134 cancer cell lines; Homo sapiens, HCT-116, read-out: IC50 in cell proliferation assay): 1690 nM | IC50 (134 cancer cell lines; Homo sapiens, HEC-1, read-out: IC50 in cell proliferation assay): 1810 nM | IC50 (134 cancer cell lines; Homo sapiens, HEC-1B, read-out: IC50 in cell proliferation assay): 367 nM | IC50 (134 cancer cell lines; Homo sapiens, HL-60, read-out: IC50 in cell proliferation assay): 1110 nM | IC50 (134 cancer cell lines; Homo sapiens, HT, read-out: IC50 in cell proliferation assay): 4540 nM | IC50 (134 cancer cell lines; Homo sapiens, HT-1080, read-out: IC50 in cell proliferation assay): 1660 nM | IC50 (134 cancer cell lines; Homo sapiens, Hs746T, read-out: IC50 in cell proliferation assay): 2140 nM | IC50 (134 cancer cell lines; Homo sapiens, Hs-578T, read-out: IC50 in cell proliferation assay): 1390 nM | IC50 (134 cancer cell lines; Homo sapiens, HuTu80, read-out: IC50 in cell proliferation assay): 451 nM | IC50 (134 cancer cell lines; Homo sapiens, J82, read-out: IC50 in cell proliferation assay): 1880 nM | IC50 (134 cancer cell lines; Homo sapiens, Jurkat E6.1, read-out: IC50 in cell proliferation assay): 4380 nM | IC50 (134 cancer cell lines; Homo sapiens, K562, read-out: IC50 in cell proliferation assay): 2740 nM | IC50 (134 cancer cell lines; Homo sapiens, KATO III, read-out: IC50 in cell proliferation assay): 211 nM | IC50 (134 cancer cell lines; Homo sapiens, KG-1, read-out: IC50 in cell proliferation assay): 243 nM | IC50 (134 cancer cell lines; Homo sapiens, KLE, read-out: IC50 in cell proliferation assay): 553 nM | IC50 (134 cancer cell lines; Homo sapiens, KMS-11, read-out: IC50 in cell proliferation assay): 430 nM | IC50 (134 cancer cell lines; Homo sapiens, KU812, read-out: IC50 in cell proliferation assay): 1390 nM | IC50 (134 cancer cell lines; Homo sapiens, Kasumi 1, read-out: IC50 in cell proliferation assay): 207 nM | IC50 (134 cancer cell lines; Homo sapiens, LC-2-ad, read-out: IC50 in cell proliferation assay): 334 nM | IC50 (134 cancer cell lines; Homo sapiens, LNCaP-Clone-FGC, read-out: IC50 in cell proliferation assay): 689 nM | IC50 (134 cancer cell lines; Homo sapiens, LS174T, read-out: IC50 in cell proliferation assay): 1330 nM | IC50 (134 cancer cell lines; Homo sapiens, LS-411N, read-out: IC50 in cell proliferation assay): 1760 nM | IC50 (134 cancer cell lines; Homo sapiens, LoVo, read-out: IC50 in cell proliferation assay): 2020 nM | IC50 (134 cancer cell lines; Homo sapiens, MCF7, read-out: IC50 in cell proliferation assay): 601 nM | IC50 (134 cancer cell lines; Homo sapiens, MDA-MB-231, read-out: IC50 in cell proliferation assay): 2000 nM | IC50 (134 cancer cell lines; Homo sapiens, MDA-MB-453, read-out: IC50 in cell proliferation assay): 6650 nM | IC50 (134 cancer cell lines; Homo sapiens, MDA-MB-468, read-out: IC50 in cell proliferation assay): 2010 nM | IC50 (134 cancer cell lines; Homo sapiens, MG-63, read-out: IC50 in cell proliferation assay): 1050 nM | IC50 (134 cancer cell lines; Homo sapiens, MIA PaCa-2, read-out: IC50 in cell proliferation assay): 1190 nM | IC50 (134 cancer cell lines; Homo sapiens, MKN-45, read-out: IC50 in cell proliferation assay): 2640 nM | IC50 (134 cancer cell lines; Homo sapiens, MOLM-13, read-out: IC50 in cell proliferation assay): 58 nM | IC50 (134 cancer cell lines; Homo sapiens, MOLT-4, read-out: IC50 in cell proliferation assay): 1950 nM | IC50 (134 cancer cell lines; Homo sapiens, MV4-11, read-out: IC50 in cell proliferation assay): 33 nM | IC50 (134 cancer cell lines; Homo sapiens, MeWo, read-out: IC50 in cell proliferation assay): > 10000 nM | IC50 (134 cancer cell lines; Homo sapiens, NCCIT, read-out: IC50 in cell proliferation assay): 2680 nM | IC50 (134 cancer cell lines; Homo sapiens, NCI-H82, read-out: IC50 in cell proliferation assay): 1980 nM | IC50 (134 cancer cell lines; Homo sapiens, NCI-H460, read-out: IC50 in cell proliferation assay): 1380 nM | IC50 (134 cancer cell lines; Homo sapiens, NCI-H661, read-out: IC50 in cell proliferation assay): 402 nM | IC50 (134 cancer cell lines; Homo sapiens, NCI-H716, read-out: IC50 in cell proliferation assay): 201 nM | IC50 (134 cancer cell lines; Homo sapiens, NCI-H1650, read-out: IC50 in cell proliferation assay): 673 nM | IC50 (134 cancer cell lines; Homo sapiens, NCI-H1975, read-out: IC50 in cell proliferation assay): 449 nM | IC50 (134 cancer cell lines; Homo sapiens, NCI-H2228, read-out: IC50 in cell proliferation assay): 8 nM | IC50 (134 cancer cell lines; Homo sapiens, OVCAR-3, read-out: IC50 in cell proliferation assay): 939 nM | IC50 (134 cancer cell lines; Homo sapiens, PFSK-1, read-out: IC50 in cell proliferation assay): 592 nM | IC50 (134 cancer cell lines; Homo sapiens, RL95-2, read-out: IC50 in cell proliferation assay): 652 nM | IC50 (134 cancer cell lines; Homo sapiens, RPMI-7951, read-out: IC50 in cell proliferation assay): 1280 nM | IC50 (134 cancer cell lines; Homo sapiens, RS4-11, read-out: IC50 in cell proliferation assay): 473 nM | IC50 (134 cancer cell lines; Homo sapiens, Rec1, read-out: IC50 in cell proliferation assay): 1320 nM | IC50 (134 cancer cell lines; Homo sapiens, SHP77, read-out: IC50 in cell proliferation assay): 5190 nM | IC50 (134 cancer cell lines; Homo sapiens, SK-BR-3, read-out: IC50 in cell proliferation assay): 1360 nM | IC50 (134 cancer cell lines; Homo sapiens, SK-N-AS, read-out: IC50 in cell proliferation assay): 618 nM | IC50 (134 cancer cell lines; Homo sapiens, SK-N-FI, read-out: IC50 in cell proliferation assay): 1090 nM | IC50 (134 cancer cell lines; Homo sapiens, SK-N-MC, read-out: IC50 in cell proliferation assay): 401 nM | IC50 (134 cancer cell lines; Homo sapiens, SK-N-SH, read-out: IC50 in cell proliferation assay): 367 nM | IC50 (134 cancer cell lines; Homo sapiens, SNU-5, read-out: IC50 in cell proliferation assay): 2150 nM | IC50 (134 cancer cell lines; Homo sapiens, SNU-16, read-out: IC50 in cell proliferation assay): 376 nM | IC50 (134 cancer cell lines; Homo sapiens, SNU-C2B, read-out: IC50 in cell proliferation assay): 741 nM | IC50 (134 cancer cell lines; Homo sapiens, SU-DHL-1, read-out: IC50 in cell proliferation assay): 35 nM | IC50 (134 cancer cell lines; Homo sapiens, SU-DHL-6, read-out: IC50 in cell proliferation assay): 1340 nM | IC50 (134 cancer cell lines; Homo sapiens, SUP-T1, read-out: IC50 in cell proliferation assay): 1480 nM | IC50 (134 cancer cell lines; Homo sapiens, SW48, read-out: IC50 in cell proliferation assay): 713 nM | IC50 (134 cancer cell lines; Homo sapiens, SW480, read-out: IC50 in cell proliferation assay): 1090 nM | IC50 (134 cancer cell lines; Homo sapiens, SW626, read-out: IC50 in cell proliferation assay): 1300 nM | IC50 (134 cancer cell lines; Homo sapiens, SW780, read-out: IC50 in cell proliferation assay): 317 nM | IC50 (134 cancer cell lines; Homo sapiens, SW837, read-out: IC50 in cell proliferation assay): 663 nM | IC50 (134 cancer cell lines; Homo sapiens, SW872, read-out: IC50 in cell proliferation assay): 780 nM | IC50 (134 cancer cell lines; Homo sapiens, SW900, read-out: IC50 in cell proliferation assay): 537 nM | IC50 (134 cancer cell lines; Homo sapiens, SW948, read-out: IC50 in cell proliferation assay): 1440 nM | IC50 (134 cancer cell lines; Homo sapiens, SW982, read-out: IC50 in cell proliferation assay): 490 nM | IC50 (134 cancer cell lines; Homo sapiens, SW-620, read-out: IC50 in cell proliferation assay): 980 nM | IC50 (134 cancer cell lines; Homo sapiens, T98G, read-out: IC50 in cell proliferation assay): 1340 nM | IC50 (134 cancer cell lines; Homo sapiens, TCC-SUP, read-out: IC50 in cell proliferation assay): 1420 nM | IC50 (134 cancer cell lines; Homo sapiens, THP-1, read-out: IC50 in cell proliferation assay): 6380 nM | IC50 (134 cancer cell lines; Homo sapiens, U2OS, read-out: IC50 in cell proliferation assay): 1240 nM | IC50 (134 cancer cell lines; Homo sapiens, U-87 MG, read-out: IC50 in cell proliferation assay): 8530 nM | IC50 (134 cancer cell lines; Homo sapiens, U-118-MG, read-out: IC50 in cell proliferation assay): 1880 nM | IC50 (134 cancer cell lines; Homo sapiens, UMUC3, read-out: IC50 in cell proliferation assay): 1320 nM | IC50 (134 cancer cell lines; Hs766T, read-out: IC50 in cell proliferation assay): 2540 nM | IC50 (134 cancer cell lines; L-82, read-out: IC50 in cell proliferation assay): 6.37 nM | IC50 (134 cancer cell lines; Rh30, read-out: IC50 in cell proliferation assay): 464 nM
